Reference: US20220348569A1 (priority 2021, published 2022)
Entries after “also recorded” stand apart in the source; their conditions may differ. Where two headings read alike, the source gives them in different places.

Key:
SARS-CoV pseudovirus [1] = test: microbe, parasite or virus in culture; type: cell-based; details: Severe acute respiratory syndrome coronavirus, 293T/ACE2
SARS-CoV pseudovirus [2] = test: microbe, parasite or virus in culture; type: cell-based; details: Severe acute respiratory syndrome coronavirus, HT-1080
SARS-CoV pseudovirus [3] = test: microbe, parasite or virus in culture; type: cell-based; details: Severe acute respiratory syndrome coronavirus, A549-ACE2
MERS-CoV pseudovirus [4] = test: microbe, parasite or virus in culture; type: cell-based; details: Middle East respiratory syndrome-related coronavirus, Huh-7
MERS-CoV pseudovirus [5] = test: microbe, parasite or virus in culture; type: cell-based; details: Middle East respiratory syndrome-related coronavirus, MRC5
[6] = test system: SARS-CoV-2 (US_WA-1/2020); type: cell-based
[7] = test system: SARS-CoV-2 full Spike wild-type (Wuhan-Hu-1) mediated cell-to-cell fusion; test: cells; type: cell-based; details: for inhibition at 0.25 µM: Severe acute respiratory syndrome coronavirus 2, Jurkat, at 250 nM, read-out: inhibitory activity of SARS-CoV-2 mediated cell-to-cell fusion
[8] = biological target: SARS-CoV-2 spike (active trimer) His-tag (Severe acute respiratory syndrome coronavirus 2, UniProt P0DTC2); type: binding
SARS-CoV-2 pseudovirus [9] = test: microbe, parasite or virus in culture; type: cell-based; details: for IC50: Severe acute respiratory syndrome-related coronavirus, read-out: IC50s against SARS-CoV-2 pseudovirus over the cell lines
[10] = rat, in vivo
in vivo = details: female, rat; for AUC(0-t): Sprague Dawley
in vitro [11] = details: human
SARS-CoV-2 pseudovirus [12] = test: microbe, parasite or virus in culture; type: cell-based; details: Severe acute respiratory syndrome-related coronavirus, A549-ACE2
SARS-CoV pseudovirus [13] = type: cell-based
MERS-CoV pseudovirus [14] = test: microbe, parasite or virus in culture; type: cell-based; details: Middle East respiratory syndrome-related coronavirus, read-out: IC50 against MERS-CoV pseudovirus
in vitro [15] = details: human; remark: listed apart in the source
in vitro [16] = details: human; remark: listed apart in the source
in vitro [17] = details: human, Caco-2, pH 7.4
[18] = both, human, microsomes
in vitro [19] = details: both, human, plasma
[20] = female, Sprague Dawley, iv, 5 mg/kg

O=C(O)c1cccc(-c2ccc(/C=C3\SC(=S)N(CCc4ccccc4)C3=O)o2)c1 [Compound 2]
IC50 (SARS-CoV pseudovirus [1]): 13.8 to 17 nM
IC50 (SARS-CoV pseudovirus [2]): 19.3 to 39 nM
IC50 (SARS-CoV pseudovirus [3]): 98 to 157 nM
IC50 (MERS-CoV pseudovirus [4]): 95 to 158 nM
IC50 (MERS-CoV pseudovirus [5]): 76.5 to 123 nM
IC100 [6]: 1.25 µM
inhibition of SARS-CoV-2 mediated cell-to-cell fusion (in words) [7]: potently inhibited the cell-to-cell fusion even at the lowest dose
inhibition at 0.25 µM [7]: 62 to 79%
ka [8]: 872 M⁻¹ s⁻¹
antiviral activity against SARS-CoV-2 pseudovirus (in words) (SARS-CoV-2 pseudovirus [9]): low nanomolar activity; also recorded: best antiviral potency; also recorded: low nM IC50
IC50 (SARS-CoV-2 pseudovirus [9]): 22.8 to 58 nM
C0 [10, 20]: 1710.87 ng/mL
CLobs [10, 20]: 0.00027 mg/kg/(ng/mL)/hr
MRT0-inf_obs [10, 20]: 5.09 h
Vss_obs [10, 20]: 0.0014 mg/kg/(ng/mL)
Vss_obs ([10]; female, Sprague Dawley, po, 10 mg/kg): 0 mg/kg/(ng/mL)
F % ([10]; female, Sprague-Dawley): 0.9%
MRT0-inf_obs ([10]; female, Sprague-Dawley, po, 10 mg/kg): 7.28 h
Vz/F_obs ([10]; po, 10 mg/kg): 0.1759 mg/kg/(ng/mL)
AUC(0-t) (in vivo; iv, 5 mg/kg): 17100 ng·h/mL
AUC(0-t) (in vivo; po, 10 mg/kg): 319 ng·h/mL
half-life (in vivo; Sprague-Dawley, iv, 5 mg/kg): 3.5 to 3.9 h

O=C(O)c1cc(-c2ccc(/C=C3\SC(=S)N(CCc4ccccc4)C3=O)o2)ccc1F [Compound 3]
IC50 (SARS-CoV pseudovirus [1]): 13.8 to 17 nM
IC50 (SARS-CoV pseudovirus [2]): 19.3 to 39 nM
IC50 (SARS-CoV pseudovirus [3]): 98 to 157 nM
IC50 (MERS-CoV pseudovirus [4]): 95 to 158 nM
IC50 (MERS-CoV pseudovirus [5]): 76.5 to 123 nM
IC100 [6]: 2.5 µM
antiviral activity against SARS-CoV-2 pseudovirus (in words) (SARS-CoV-2 pseudovirus [9]): somewhat reduced activity
selectivity index (SI, ratio CC50/IC50) over the cell lines (SARS-CoV-2 pseudovirus [9]): 750->1563
IC50 (SARS-CoV-2 pseudovirus [9]): 60.1 to 120 nM
CC50 (in vitro [11]): 45000 ± 5000 nM

Cc1ccc(-c2ccc(/C=C3\SC(=S)N(CCc4ccccc4)C3=O)o2)cc1C(=O)O [Compound 4]
IC50 (MERS-CoV pseudovirus [4]): 95 to 158 nM
IC50 (MERS-CoV pseudovirus [5]): 76.5 to 123 nM
IC100 [6]: 2.5 µM
inhibition of SARS-CoV-2 mediated cell-to-cell fusion (in words) [7]: potently inhibited the cell-to-cell fusion even at the lowest dose
inhibition at 0.25 µM [7]: 62 to 79%
antiviral activity against SARS-CoV-2 pseudovirus (in words) (SARS-CoV-2 pseudovirus [9]): low nanomolar activity; also recorded: excellent antiviral activity
IC50 (SARS-CoV-2 pseudovirus [9]): 26 to 73 nM

Cc1c(C(=O)O)cccc1-c1ccc(/C=C2\SC(=S)N(CCc3ccccc3)C2=O)o1 [Compound 5]
IC50 (SARS-CoV-2 pseudovirus [12]): > 2000 nM
IC100 [6]: >10 µM
inhibition of SARS-CoV-2 mediated cell-to-cell fusion (in words) [7]: only inhibited the SARS-CoV-2 mediated cell-to-cell fusion at the higher dose (4 μM)
activity against SARS-CoV pseudovirus (in words) (SARS-CoV pseudovirus [13]): poor activity
IC50 (MERS-CoV pseudovirus [14]): > 2000 nM

CCc1ccc(-c2ccc(/C=C3\SC(=S)N(CCc4ccccc4)C3=O)o2)cc1C(=O)O [Compound 6]
IC100 [6]: >10 µM
antiviral activity against SARS-CoV-2 pseudovirus (in words) (SARS-CoV-2 pseudovirus [9]): slightly lower antiviral activity
IC50 (MERS-CoV pseudovirus [14]): < 1000 nM
CC50 (in vitro [11]): 40000 ± 6000 nM

O=C(O)c1cccc(-c2ccc(/C=C3\SC(=S)N(CCc4ccccc4)C3=O)o2)c1F [Compound 7]
IC100 [6]: 5 µM
IC50 (MERS-CoV pseudovirus [14]): < 1000 nM

O=C(O)c1cc(-c2ccc(/C=C3\SC(=S)N(CCc4ccccc4)C3=O)o2)ccc1Br [Compound 8]
IC100 [6]: 5 µM
antiviral activity against SARS-CoV-2 pseudovirus (in words) (SARS-CoV-2 pseudovirus [9]): excellent antiviral activity
IC50 (MERS-CoV pseudovirus [14]): < 1000 nM

Cc1c(C(=O)O)cncc1-c1ccc(/C=C2\SC(=S)N(CCc3ccccc3)C2=O)o1 [Compound 9]
IC100 [6]: 2.5 µM

O=C1C(=Cc2ccc(-c3ccc(Cl)cc3)o2)SC(=S)N1CCc1ccccc1 [Compound 10, 5-((5-(4-chlorophenyl)furan-2-yl)methylene)-3-phenethyl-2-thioxothiazolidin-4-one]
antiviral activity against SARS-CoV-2 pseudovirus (in words) (SARS-CoV-2 pseudovirus [9]): no antiviral potency at the highest dose tested
IC50 (SARS-CoV-2 pseudovirus [9]): > 2000 nM

NS(=O)(=O)c1ccc(-c2ccc(/C=C3\SC(=S)N(CCc4ccccc4)C3=O)o2)cc1 [Compound 11]
IC50 (MERS-CoV pseudovirus [4]): 13.2 ± 3.7 nM
CC50 (in vitro [11]): 13300 ± 2000 nM

O=C1NC(=S)S/C1=C\c1ccc(-c2ccc(Cl)c(C(=O)O)c2)o1 [Compound 12]
antiviral activity against SARS-CoV-2 pseudovirus (in words) (SARS-CoV-2 pseudovirus [9]): did not display any activity at the highest dose tested

CCN1C(=O)/C(=C/c2ccc(-c3cccc(C(=O)O)c3)o2)SC1=S [Compound 13]
CC50 (in vitro [11]): 74000 ± 3000 nM
CC50 (in vitro [15]): > 100000 nM

COCCN1C(=O)/C(=C/c2ccc(-c3ccc(Cl)c(C(=O)O)c3)o2)SC1=S [Compound 14]
CC50 (in vitro [11]): 81000 ± 1000 nM
CC50 (in vitro [15]): > 100000 nM

CN1C(=O)/C(=C/c2ccc(-c3cccc(C(=O)O)c3)o2)SC1=S [Compound 15]
CC50 (in vitro [11]): 53000 ± 8000 nM
CC50 (in vitro [15]): > 100000 nM

O=C1/C(=C/c2ccc(-c3ccccc3)o2)SC(=S)N1CCc1ccccc1 [Compound 16]
CC50 (in vitro [11]): 75000 ± 7000 nM
CC50 (in vitro [15]): 40000 ± 2000 nM

C=CCN1C(=O)/C(=C/c2ccc(-c3cccc(C(=O)O)c3)o2)SC1=S [Compound 17]
CC50 (in vitro [11]): > 100000 nM
CC50 (in vitro [15]): > 100000 nM

O=C(O)c1cc(-c2ccc(/C=C3\SC(=S)N(C4CCCCC4)C3=O)o2)ccc1Cl [Compound 18]
IC50 (MERS-CoV pseudovirus [4]): 10.5 ± 0.9 nM
antiviral activity against SARS-CoV-2 pseudovirus (in words) (SARS-CoV-2 pseudovirus [9]): excellent antiviral activity; also recorded: low nM IC50
CC50 (in vitro [11]): > 100000 nM
CC50 (in vitro [15]): > 100000 nM
CC50 (in vitro [16]): > 100000 nM

C=CCN1C(=O)/C(=C/c2ccc(-c3cc(C(=O)O)cc(C(=O)O)c3)o2)SC1=S [Compound 19]
CC50 (in vitro [11]): > 100000 nM
CC50 (in vitro [15]): > 100000 nM

C=CCN1C(=O)/C(=C/c2ccc(-c3cccc(C(=O)O)c3C)o2)SC1=S [Compound 20]
IC50 (MERS-CoV pseudovirus [4]): 340 ± 112 nM
CC50 (in vitro [11]): > 100000 nM
CC50 (in vitro [15]): > 100000 nM
CC50 (in vitro [16]): 84000 ± 4000 nM

O=C1NC(=S)S/C1=C\c1ccc(-c2ccc(C(=O)O)c(Cl)c2)o1 [Compound 21]
CC50 (in vitro [11]): > 100000 nM
CC50 (in vitro [15]): > 100000 nM

Cc1ccc(-c2ccc(/C=C3\SC(=S)N(CC(C)C)C3=O)o2)cc1C(=O)O [Compound 22]
CC50 (in vitro [11]): 68000 ± 4000 nM
CC50 (in vitro [15]): 70000 ± 4000 nM

C#CCN1C(=O)/C(=C/c2ccc(-c3ccc(Cl)c(C(=O)O)c3)o2)SC1=S [Compound 23]
antiviral activity against SARS-CoV-2 pseudovirus (in words) (SARS-CoV-2 pseudovirus [9]): did not display any activity at the highest dose tested

CCN1C(=O)/C(=C/c2ccc(-c3ccc(Cl)c(C(=O)O)c3)o2)SC1=S [Compound 24]
IC50 (MERS-CoV pseudovirus [4]): 88 ± 13 nM
CC50 (in vitro [11]): 78000 ± 3000 nM
CC50 (in vitro [15]): > 100000 nM
CC50 (in vitro [16]): ~100000 nM

O=C(O)c1cccc(-c2ccc(/C=C3\SC(=S)N(C4CCCCC4)C3=O)o2)c1 [Compound 25]
IC50 (MERS-CoV pseudovirus [4]): 247 ± 47 nM
antiviral activity against SARS-CoV-2 pseudovirus (in words) (SARS-CoV-2 pseudovirus [9]): displayed antiviral potency
CC50 (in vitro [11]): > 100000 nM
CC50 (in vitro [15]): > 100000 nM
CC50 (in vitro [16]): > 100000 nM

N=C1NC(=O)/C(=C/c2ccc(-c3ccc(Cl)c(C(=O)O)c3)o2)S1 [Compound 26]
CC50 (in vitro [11]): > 100000 nM

CN1C(=O)/C(=C/c2ccc(-c3cccc(C(=O)O)c3)o2)SC1=S [Compound 27]
IC50 (MERS-CoV pseudovirus [4]): 96 ± 14 nM
CC50 (in vitro [16]): > 100000 nM

O=C1NC(=S)S/C1=C\c1ccc(-c2ccc(C(=O)O)cc2)o1 [Compound 28]
antiviral activity against SARS-CoV-2 pseudovirus (in words) (SARS-CoV-2 pseudovirus [9]): loses the inhibitory activity; also recorded: showed no inhibition

CC(C)NCC(O)COc1cccc2ccccc12 (centres unmarked) [Propranolol]
Papp (in vitro [17]): 19.7 ×10⁻⁶ cm/s

C[C@]12CC[C@H]3[C@@H](CCC4=CC(=O)CC[C@@]43C)[C@@H]1CC[C@@H]2O [Testosterone, reference compound]
half-life [18]: 0.188 h

CC(=O)CC(c1ccccc1)c1c(O)c2ccccc2oc1=O (centres unmarked) [Warfarin]
fraction unbound (in vitro [19]): 0.018
